Laboratory results as given in patent US10520514B2, “Method for monitoring post-translational modification of protein” (KOREA INSTITUTE OF SCIENCE AND TECHNOLOGY, priority 2017, dated 2019).

Tests used:
Type in all cases: biochemical
[1] = tested on: O-glycosylated tau; assay: Nanogap biosensor impedance of microbeads bound to tau protein, reacted with O-GlcNAc (CTD110.6) antibody
Protocol: (§1) A tosylate-treated magnetic bead (Thermo Fisher, Dynabead M-280, diameter 2.8 μm, 14203) and a tau protein binding antibody (abcam, Anti-Tau (Phosphor S262) antibody, ab64193, 50 μl/250 μl) are inserted in a 0.1 M PBS buffer and placed in a 37° C. incubator, and incubated on a roll mixer for 24 hours.
(§2) Next, the magnetic bead bound to the tau protein binding antibody are washed with 0.4% Block ACE (AbD serotec, USA) and blocked with 0.2 M tris buffer. 30 mg/mL of the microbead solution was stored in PBST (Phosphate Buffered Saline with Tween-20, 0.01% Tween-20) containing 0.4% Block Ace.
(§3) The tau protein at a concentration of 5250 ng/mL was diluted 1/10 in various concentrations (0.5 fg/mL to 50 pg/mL) using 0.1% PBST. Tau protein was treated with Thiamet G, an O-glycosylation drug, if necessary.
(§4) The microbead bound to the tau protein binding antibody were diluted to 300 μl/ml using 0.1% PBST, and the tau protein (diluent) and the microbead (diluent) were mixed at a concentration of 1:2 and reacted in a refrigerator for 22 hours.
(§5) Next, the microbead bound to the tau protein is washed twice with 0.1% PBST and washed twice with PBS (Phosphate Buffered Saline). Thereafter, it is diluted to a bead concentration of 60 μl/ml using PBS.
(§6) A microbead (300 μl/ml) bound to tau protein were prepared in the same manner as in Synthesis Example 1.
The microbead is mixed with 10.4 ng of an antibody capable of binding O-glycosylated proteins (Cell signaling, O-GlcNAc (CTD110.6) Mouse mAB, #9875) and reacted in a refrigerator for 22 hours.
The microbead bound to the O-glycosylated tau-binding antibody is washed twice with 0.1% PBST, washed twice with PBS, and diluted to a bead concentration of 60 μl/ml using PBS.
(§7) The samples thus obtained were measured for impedance using a biosensor array (10×10 or 20×20) with an electrode interval of 0.7 μm. […] In addition, impedance change rate is a value (%) obtained by dividing a difference between the impedance Zneg of Neg and the impedance BAT or BAT2 of divided by the impedance Zneg of Neg and multiplied by 100. Impedance change rate difference is defined as a value obtained by subtracting the impedance change rate of BAT from the impedance change rate of BAT2.

[2] = tested on: phosphorylated tau; assay: Nanogap biosensor impedance of microbeads bound to tau protein, reacted with AT8 antibody; settings: 100 uM Thiamet G, tau protein 0.5 pg/ml
Protocol: as §1, §2, §3, §4, §5, §6
The microbead is mixed with 10 ng of an antibody capable of binding to phosphorylated tau protein (Thermo Fisher, Phospho-Tau (Ser202, Thr205) Antibody (AT8), MN1020) and reacted in a refrigerator for 22 hours.
The microbead bound to the phosphorylated tau-binding antibody is washed twice with 0.1% PBST, washed twice with PBS, and diluted to a bead concentration of 60 μl/ml using PBS.
as §7, with “Impedance change rate difference is defined as a value obtained by subtracting the impedance change rate of BAT from the impedance change rate of BAT2.” left out

[3] = tested on: tau protein; assay: Ratio of impedance change due to phosphorylated tau (P) and O-glycosylated tau (O); settings: 100 uM Thiamet G; tau protein 0.5 pg/ml
Protocol: as §7

[4] = 10 uM Thiamet G, tau protein 0.5 pg/ml, O-GlcNAc
[5] = 30 uM Thiamet G, tau protein 0.5 pg/ml, O-GlcNAc
[6] = 100 uM Thiamet G, tau protein 0.5 pg/ml, O-GlcNAc

Q: What does the source list for `CCN=C1N[C@@H]2[C@@H](O)[C@H](O)[C@@H](CO)O[C@@H]2S1` [Thiamet G]?
A: BAT-BAT2 [1, 4]: 4.3 MΩ; Impedance change rate difference [1, 4]: 1.62%; BAT-BAT2 [1, 5]: 11.6 MΩ; Impedance change rate difference [1, 5]: 4.39%; BAT-BAT2 [1, 6]: 30.5 MΩ; Impedance change rate difference [1, 6]: 11.54%; O ((BAT-BAT2)/Neg) [1, 6]: 0.1154; Impedance change rate difference ([1]; 100 uM Thiamet G, tau protein 0.5 fg/ml): 7.5%; Impedance change rate difference ([1]; 100 uM Thiamet G, tau protein 5.2 fg/ml): 20.4%; Impedance change rate difference ([1]; 100 uM Thiamet G, tau protein 52.4 fg/ml): 28.9%; Impedance change rate difference ([1]; 100 uM Thiamet G, tau protein 524 fg/ml): 32.8%; Impedance change rate difference for the microbead combined with O-glycosylated antibody ([1]; when the concentration of Thiamet G was increased (Tables 1-1 and 1-2)): greatly increased; BAT-BAT2 [2]: 0.59 MΩ; Impedance change rate difference [2]: 1.28%; P ((BAT2-BAT)/Neg) [2]: 0.0128; P/O [3]: 0.111
